Results published in patent publication US20210213104A1, “GLUCAGON AND GLP-1 CO-AGONISTS FOR THE TREATMENT OF CHRONIC KIDNEY DISEASE AND DIABETIC KIDNEY DISEASE IN TYPE 2 DIABETES” (MEDIMMUNE LIMITED, priority 2020, published 2021).

Tested on: subjects with T2DM and renal impairment
Test: Phase 2a: continuous glucose monitoring (CGM)
Format: in vivo, human
Settings: ITT; for Average CGM Glucose Over 7-Day Periods, Difference in LS Mean Change (vs Placebo) / Average CGM Glucose Over 7-Day Periods, LS Mean Change / Percentage of time CGM Glucose in Clinically Significant Hypoglycemia (<54 mg/dL), Difference in LS Mean Change (vs Placebo) / Percentage of time CGM Glucose in Clinically Significant Hypoglycemia (<54 mg/dL), LS Mean Change / Percentage of time CGM Glucose in Hyperglycemia (>180 mg/dL), Difference in LS Mean Change (vs Placebo) / Percentage of time CGM Glucose in Hyperglycemia (>180 mg/dL), LS Mean Change / Percentage of time CGM Glucose in Hypoglycemia (<70 mg/dl), Difference in LS Mean Change (vs Placebo) / Percentage of time CGM Glucose in Hypoglycemia (<70 mg/dl), LS Mean Change / Average CGM Glucose Over 7-Day Periods, Change from Baseline to End of Dosing Period, Mean / Average CGM Glucose Over 7-Day Periods, Change from Baseline to End of Dosing Period, Median / Percentage of time CGM Glucose in Hyperglycemia (>180 mg/dL), Change from Baseline to End of Dosing Period, Mean / Percentage of time CGM Glucose in Hyperglycemia (>180 mg/dL), Change from Baseline to End of Dosing Period, Median: baseline Days −8 to −2; for Average CGM Glucose Over 7-Day Periods, Difference in LS Mean Change (vs Placebo) / Average CGM Glucose Over 7-Day Periods, LS Mean Change / Percentage of time CGM Glucose in Clinically Significant Hypoglycemia (<54 mg/dL), Difference in LS Mean Change (vs Placebo) / Percentage of time CGM Glucose in Clinically Significant Hypoglycemia (<54 mg/dL), LS Mean Change / Percentage of time CGM Glucose in Hyperglycemia (>180 mg/dL), Difference in LS Mean Change (vs Placebo) / Percentage of time CGM Glucose in Hyperglycemia (>180 mg/dL), LS Mean Change / Percentage of time CGM Glucose in Hypoglycemia (<70 mg/dl), Difference in LS Mean Change (vs Placebo) / Percentage of time CGM Glucose in Hypoglycemia (<70 mg/dl), LS Mean Change / Time in target range, LS Mean Change: ANCOVA; for Time in target range, LS Mean Change: 300 μg Dose (Days 26 to 32)
Experimental: Cotadutide was titrated from 50 μg up to 300 μg and administered once daily by subcutaneous (SC) injection over 32 days.
Cotadutide was administered at 50 μg once daily for 4 days, followed by 100 μg daily for 7 days, 200 μg daily for 7 days, and 300 μg daily for 14 days (n=20). Placebo was administered one daily for 32 days (n=20). Cotadutide and placebo were administered in the morning. Dosing commenced following predose baseline vital signs, blood tests (including HbA1c), an electrocardiogram (ECG), body weight measurement, and bioimpedance spectroscopy (BIS). Subjects then returned for daily dosing or remained overnight locally until Day 5, and thereafter, had visits at weekly intervals until a maintenance dose of 300 μg was established. Thus, Cotadutide or placebo was administered at the study site by study personal for the first four doses and on site on Days 5, 12, 19, and 32. At all other times, subjects preformed dosing at home.
A Freestyle Libre® Pro CGM device was used to measure interstitial glucose levels. […] Data generated by CGM was used at visits to adjust insulin doses and other treatments.
The CGM sensor, which is a small plastic circular device of 35 mm diameter and 5 mm depth, was applied to the back of the upper arm. Subjects wore the CGM sensor continuously up until the time of a sensor change, which was to occur within 14 days, and they were advised that they could bathe and shower, and swim in up to 3 m depth for up to 30 minutes while wearing the CGM sensor. When the CGM sensor was removed, a new CGM sensor could be reapplied, ideally close to the original site, but with the subject's site preference taken into account. CGM sensors were single-use only.
If a subject was unable to tolerate wearing the CGM sensor for the entire duration of the study, the sensor was removed; but the subject was to remain in the study with or without continued CGM and could instead be instructed to monitor capillary plasma glucose measurements four times per day (before meals and before bedtime) and record these levels in the diary provided.
Subjects underwent continuous glucose monitoring (CGM) starting from Day −14 to Day 40 (±5 days), with sensor changes within 14-day intervals. CGM readings were used to analyze change in average CGM glucose and glucose AUC7 d, coefficient of variation as a marker of glycemic variability, and time spent in target glucose range and hypoglycemia, to enable comparison across different dose levels.

SMILES: CCCCCCCCCCCCCCCC(=O)N[C@@H](CCC(=O)NCCCC[C@H](NC(=O)[C@H](CC(=O)O)NC(=O)[C@H](CO)NC(=O)[C@@H](NC(=O)[C@H](Cc1ccccc1)NC(=O)[C@@H](NC(=O)CNC(=O)[C@H](CCC(N)=O)NC(=O)[C@H](CO)NC(=O)[C@@H](N)Cc1c[nH]cn1)[C@@H](C)O)[C@@H](C)O)C(=O)N[C@@H](CO)C(=O)N[C@@H](CCC(=O)O)C(=O)N[C@@H](Cc1ccc(O)cc1)C(=O)N[C@@H](CC(C)C)C(=O)N[C@@H](CC(=O)O)C(=O)N[C@@H](CO)C(=O)N[C@@H](CCC(=O)O)C(=O)N[C@@H](CCCNC(=N)N)C(=O)N[C@@H](C)C(=O)N[C@@H](CCCNC(=N)N)C(=O)N[C@@H](CC(=O)O)C(=O)N[C@@H](Cc1ccccc1)C(=O)N[C@H](C(=O)N[C@@H](C)C(=O)N[C@@H](Cc1c[nH]c2ccccc12)C(=O)N[C@@H](CC(C)C)C(=O)N[C@@H](CCC(=O)O)C(=O)N[C@@H](C)C(=O)NCC(=O)NCC(=O)O)C(C)C)C(=O)O [Cotadutide]
- Average CGM Glucose Over 7-Day Periods, End of Dosing Period, Mean (300 μg (Days 19 to 25)): 124.894 mg/dL
- Average CGM Glucose Over 7-Day Periods, End of Dosing Period, Median (300 μg (Days 19 to 25)): 123.277 mg/dL
- Percentage of time CGM Glucose in Hyperglycemia (>180 mg/dL), End of Dosing Period, Mean (300 μg (Days 19 to 25)): 10.65%
- Percentage of time CGM Glucose in Hyperglycemia (>180 mg/dL), End of Dosing Period, Median (300 μg (Days 19 to 25)): 5.81%
- Average CGM Glucose Over 7-Day Periods, Difference in LS Mean Change (vs Placebo) (300 μg (Days 19 to 25)): -48.97 mg/dL
- Average CGM Glucose Over 7-Day Periods, LS Mean Change (300 μg (Days 19 to 25)): -38.75 mg/dL
- Percentage of time CGM Glucose in Clinically Significant Hypoglycemia (<54 mg/dL), Difference in LS Mean Change (vs Placebo) (300 μg (Days 19 to 25)): 4.57%
- Percentage of time CGM Glucose in Clinically Significant Hypoglycemia (<54 mg/dL), LS Mean Change (300 μg (Days 19 to 25)): 3.58%
- Percentage of time CGM Glucose in Hyperglycemia (>180 mg/dL), Difference in LS Mean Change (vs Placebo) (300 μg (Days 19 to 25)): −23.47%
- Percentage of time CGM Glucose in Hyperglycemia (>180 mg/dL), LS Mean Change (300 μg (Days 19 to 25)): −23.47%
- Percentage of time CGM Glucose in Hypoglycemia (<70 mg/dl), Difference in LS Mean Change (vs Placebo) (300 μg (Days 19 to 25)): 4.25%
- Percentage of time CGM Glucose in Hypoglycemia (<70 mg/dl), LS Mean Change (300 μg (Days 19 to 25)): 3.39%
- Average CGM Glucose Over 7-Day Periods, Change from Baseline to End of Dosing Period, Mean (300 μg (Days 19 to 25)): -38.623 mg/dL
- Average CGM Glucose Over 7-Day Periods, Change from Baseline to End of Dosing Period, Median (300 μg (Days 19 to 25)): -35.498 mg/dL
- Percentage of time CGM Glucose in Hyperglycemia (>180 mg/dL), Change from Baseline to End of Dosing Period, Mean (300 μg (Days 19 to 25)): −23.50%
- Percentage of time CGM Glucose in Hyperglycemia (>180 mg/dL), Change from Baseline to End of Dosing Period, Median (300 μg (Days 19 to 25)): −19.64%
- Average CGM Glucose Over 7-Day Periods, End of Dosing Period, Mean (300 μg (Days 26 to 32)): 125.382 mg/dL
- Average CGM Glucose Over 7-Day Periods, End of Dosing Period, Median (300 μg (Days 26 to 32)): 121.594 mg/dL
- Percentage of time CGM Glucose in Hyperglycemia (>180 mg/dL), End of Dosing Period, Mean (300 μg (Days 26 to 32)): 10.00%
- Percentage of time CGM Glucose in Hyperglycemia (>180 mg/dL), End of Dosing Period, Median (300 μg (Days 26 to 32)): 4.38%
- Average CGM Glucose Over 7-Day Periods, Difference in LS Mean Change (vs Placebo) (300 μg (Days 26 to 32)): -47.89 mg/dL
- Average CGM Glucose Over 7-Day Periods, LS Mean Change (300 μg (Days 26 to 32)): -41.37 mg/dL
- Percentage of time CGM Glucose in Clinically Significant Hypoglycemia (<54 mg/dL), Difference in LS Mean Change (vs Placebo) (300 μg (Days 26 to 32)): 1.58%
- Percentage of time CGM Glucose in Clinically Significant Hypoglycemia (<54 mg/dL), LS Mean Change (300 μg (Days 26 to 32)): 0.13%
- Percentage of time CGM Glucose in Hyperglycemia (>180 mg/dL), Difference in LS Mean Change (vs Placebo) (300 μg (Days 26 to 32)): −18.94%
- Percentage of time CGM Glucose in Hyperglycemia (>180 mg/dL), LS Mean Change (300 μg (Days 26 to 32)): −25.15%
- Percentage of time CGM Glucose in Hypoglycemia (<70 mg/dl), Difference in LS Mean Change (vs Placebo) (300 μg (Days 26 to 32)): 4.91%
- Percentage of time CGM Glucose in Hypoglycemia (<70 mg/dl), LS Mean Change (300 μg (Days 26 to 32)): 3.09%
- Average CGM Glucose Over 7-Day Periods, Change from Baseline to End of Dosing Period, Mean (300 μg (Days 26 to 32)): -41.401 mg/dL
- Average CGM Glucose Over 7-Day Periods, Change from Baseline to End of Dosing Period, Median (300 μg (Days 26 to 32)): -51.123 mg/dL
- Percentage of time CGM Glucose in Hyperglycemia (>180 mg/dL), Change from Baseline to End of Dosing Period, Mean (300 μg (Days 26 to 32)): −25.49%
- Percentage of time CGM Glucose in Hyperglycemia (>180 mg/dL), Change from Baseline to End of Dosing Period, Median (300 μg (Days 26 to 32)): −23.12%
- Time in target range, LS Mean Change (Insulin Dose < 20 U/day): 17.13%
- Time in target range, LS Mean Change (Insulin Dose ≥ 20 U/day): 10.40%
- Time in target range, LS Mean Change (Total): 14.79%
